Paper PMC7497641, “Neurotropic activity and safety of methylene-cycloalkylacetate (MCA) derivative 3-(3-allyl-2-methylenecyclohexyl) propanoic acid” (ACS Chemical Neuroscience, 2020)

Legend:
[1] = target: Adenosine Receptor A2A (ADORA2A) (Homo sapiens, UniProt P29274); experiment: SAFETYscan GPCR Calcium Flux; assay type: cell-based; settings: for MCA-13 Max. Responce: 10 μM
[2] = target: Adrenergic Receptor β2 (ADRB2) (Homo sapiens, UniProt P07550); experiment: SAFETYscan GPCR cAMP; assay type: cell-based
[3] = target: Cholecystokinin Receptor A (CCKAR) (Homo sapiens, UniProt P32238); experiment: SAFETYscan GPCR Calcium Flux; assay type: cell-based; settings: read-out: RC50 (the source's name)
Cholecystokinin Receptor A (CCKAR), sequence (P32238 whole entry): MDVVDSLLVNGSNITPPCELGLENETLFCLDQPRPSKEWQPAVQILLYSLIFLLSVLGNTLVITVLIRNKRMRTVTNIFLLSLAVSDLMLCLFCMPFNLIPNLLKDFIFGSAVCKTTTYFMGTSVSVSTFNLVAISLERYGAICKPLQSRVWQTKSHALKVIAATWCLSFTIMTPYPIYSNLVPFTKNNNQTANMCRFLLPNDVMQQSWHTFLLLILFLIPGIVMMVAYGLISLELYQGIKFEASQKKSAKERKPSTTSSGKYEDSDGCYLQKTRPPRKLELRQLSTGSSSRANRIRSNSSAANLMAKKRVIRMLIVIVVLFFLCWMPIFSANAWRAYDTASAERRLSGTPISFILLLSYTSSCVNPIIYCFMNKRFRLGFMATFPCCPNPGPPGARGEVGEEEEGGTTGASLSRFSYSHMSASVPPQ

[4] = target: T1, Cannabinoid Receptor 1 (CNR1) (Homo sapiens, UniProt P21554); experiment: SAFETYscan GPCR cAMP; assay type: cell-based
T1 construct: host or cells: cAMP Hunter cell lines
T1 sequence (P21554 whole entry): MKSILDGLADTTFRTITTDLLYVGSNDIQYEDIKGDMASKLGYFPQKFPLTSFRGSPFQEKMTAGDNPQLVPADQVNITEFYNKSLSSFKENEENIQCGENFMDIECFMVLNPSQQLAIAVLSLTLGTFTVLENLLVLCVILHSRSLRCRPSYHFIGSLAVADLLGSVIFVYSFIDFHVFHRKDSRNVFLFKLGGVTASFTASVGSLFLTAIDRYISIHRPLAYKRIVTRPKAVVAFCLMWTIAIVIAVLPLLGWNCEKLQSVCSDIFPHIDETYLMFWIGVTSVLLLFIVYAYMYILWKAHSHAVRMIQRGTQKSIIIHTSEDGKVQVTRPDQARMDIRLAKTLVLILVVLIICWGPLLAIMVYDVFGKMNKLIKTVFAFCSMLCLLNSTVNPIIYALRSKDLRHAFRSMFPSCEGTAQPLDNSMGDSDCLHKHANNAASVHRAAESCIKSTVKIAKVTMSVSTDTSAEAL

[5] = target: T2, Dopamine Receptor D1 (DRD1) (Homo sapiens, UniProt P21728); experiment: SAFETYscan GPCR cAMP; assay type: cell-based
T2 construct: host or cells: cAMP Hunter cell lines

[6] = target: Endothelin Receptor Type A (EDNRA) (Homo sapiens, UniProt P25101); experiment: SAFETYscan GPCR Calcium Flux; assay type: cell-based; settings: read-out: RC50 (the source's name)
[7] = target: Histamine Receptor H1 (HRH1) (Homo sapiens, UniProt P35367); experiment: SAFETYscan GPCR Calcium Flux; assay type: cell-based; settings: read-out: RC50 (the source's name)
[8] = target: T3, 5-Hydroxy tryptamine (Serotonin) Receptor 1A (HTR1A) (Homo sapiens, UniProt P08908); experiment: SAFETYscan GPCR cAMP; assay type: cell-based
T3 construct: host or cells: cAMP Hunter cell lines

[9] = target: T4, 5-Hydroxy tryptamine (Serotonin) Receptor 1B (HTR1B) (Homo sapiens, UniProt P28222); experiment: SAFETYscan GPCR cAMP; assay type: cell-based
T4 construct: host or cells: cAMP Hunter cell lines
T4 sequence (P28222 whole entry): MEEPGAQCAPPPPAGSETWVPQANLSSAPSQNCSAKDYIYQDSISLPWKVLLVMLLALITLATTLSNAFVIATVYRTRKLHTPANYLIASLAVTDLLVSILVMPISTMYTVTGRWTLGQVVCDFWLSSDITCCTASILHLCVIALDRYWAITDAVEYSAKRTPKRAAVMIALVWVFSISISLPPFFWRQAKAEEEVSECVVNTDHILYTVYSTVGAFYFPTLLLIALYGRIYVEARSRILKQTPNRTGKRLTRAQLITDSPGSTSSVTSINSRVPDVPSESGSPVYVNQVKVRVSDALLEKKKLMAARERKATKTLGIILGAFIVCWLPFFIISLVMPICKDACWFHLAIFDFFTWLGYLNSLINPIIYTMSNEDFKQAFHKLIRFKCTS

[10] = target: 5-Hydroxy tryptamine (Serotonin) Receptor 2B (HTR2B) (Homo sapiens, UniProt P41595); experiment: SAFETYscan GPCR Calcium Flux; assay type: cell-based
[11] = target: T5, Opioid Receptor Kappa 1 (OPRK1) (Homo sapiens, UniProt P41145); experiment: SAFETYscan GPCR cAMP; assay type: cell-based
T5 construct: host or cells: cAMP Hunter cell lines

[12] = target: T6, Nicotinic acetylcholine Receptor alpha-4 beta-2 (nAChR(a4/b2)) (Homo sapiens, UniProt P17787+P43681); experiment: cell-based; settings: Ion channel, read-out: RC50 (the source's name)
T6 construct: host or cells: unnamed DiscoverX cell line
T6 sequence (P43681 29-627 limits assumed): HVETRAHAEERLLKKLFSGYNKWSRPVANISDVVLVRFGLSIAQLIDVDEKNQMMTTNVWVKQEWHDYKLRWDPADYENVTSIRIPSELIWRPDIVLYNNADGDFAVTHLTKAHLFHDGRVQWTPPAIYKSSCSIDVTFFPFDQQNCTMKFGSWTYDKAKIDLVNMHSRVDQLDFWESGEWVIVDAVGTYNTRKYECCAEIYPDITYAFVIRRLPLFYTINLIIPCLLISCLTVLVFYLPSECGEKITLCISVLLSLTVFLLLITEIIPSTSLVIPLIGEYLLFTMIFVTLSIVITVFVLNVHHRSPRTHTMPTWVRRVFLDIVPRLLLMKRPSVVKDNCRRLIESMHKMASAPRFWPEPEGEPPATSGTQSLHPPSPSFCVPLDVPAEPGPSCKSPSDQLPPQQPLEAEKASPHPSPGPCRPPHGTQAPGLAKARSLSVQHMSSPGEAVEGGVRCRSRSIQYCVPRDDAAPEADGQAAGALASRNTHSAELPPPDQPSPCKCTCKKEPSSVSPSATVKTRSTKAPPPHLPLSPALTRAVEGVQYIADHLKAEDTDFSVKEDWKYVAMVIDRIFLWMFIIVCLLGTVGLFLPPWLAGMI
T6 sequence (P17787 26-502): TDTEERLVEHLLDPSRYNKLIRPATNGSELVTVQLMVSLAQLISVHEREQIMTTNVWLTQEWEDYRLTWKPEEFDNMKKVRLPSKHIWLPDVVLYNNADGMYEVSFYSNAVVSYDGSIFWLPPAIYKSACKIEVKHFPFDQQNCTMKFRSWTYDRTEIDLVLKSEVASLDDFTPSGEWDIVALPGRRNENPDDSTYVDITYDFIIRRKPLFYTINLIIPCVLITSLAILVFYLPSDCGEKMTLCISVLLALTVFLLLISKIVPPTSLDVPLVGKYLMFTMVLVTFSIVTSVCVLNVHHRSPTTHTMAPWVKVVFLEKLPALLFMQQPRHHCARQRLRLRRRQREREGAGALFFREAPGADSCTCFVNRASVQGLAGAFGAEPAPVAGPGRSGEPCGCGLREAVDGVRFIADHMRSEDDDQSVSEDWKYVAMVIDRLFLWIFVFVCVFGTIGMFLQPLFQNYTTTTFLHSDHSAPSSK

[13] = target: A tetrodotoxin-resistant voltage-gated sodium channel (NAVI1.5) (Homo sapiens, UniProt Q14524); experiment: cell-based
[14] = target: T7, N-methyl-D-aspartate (NMDA) Glutamate Receptor 1A/2B (NMDAR (1A/2B)) (Homo sapiens, UniProt Q05586+Q13224); experiment: SAFETYscan Ion channel assay; assay type: cell-based
T7 construct: host or cells: unnamed DiscoverX cell line
T7 sequence (Q13224 27-1484, other chains not shown): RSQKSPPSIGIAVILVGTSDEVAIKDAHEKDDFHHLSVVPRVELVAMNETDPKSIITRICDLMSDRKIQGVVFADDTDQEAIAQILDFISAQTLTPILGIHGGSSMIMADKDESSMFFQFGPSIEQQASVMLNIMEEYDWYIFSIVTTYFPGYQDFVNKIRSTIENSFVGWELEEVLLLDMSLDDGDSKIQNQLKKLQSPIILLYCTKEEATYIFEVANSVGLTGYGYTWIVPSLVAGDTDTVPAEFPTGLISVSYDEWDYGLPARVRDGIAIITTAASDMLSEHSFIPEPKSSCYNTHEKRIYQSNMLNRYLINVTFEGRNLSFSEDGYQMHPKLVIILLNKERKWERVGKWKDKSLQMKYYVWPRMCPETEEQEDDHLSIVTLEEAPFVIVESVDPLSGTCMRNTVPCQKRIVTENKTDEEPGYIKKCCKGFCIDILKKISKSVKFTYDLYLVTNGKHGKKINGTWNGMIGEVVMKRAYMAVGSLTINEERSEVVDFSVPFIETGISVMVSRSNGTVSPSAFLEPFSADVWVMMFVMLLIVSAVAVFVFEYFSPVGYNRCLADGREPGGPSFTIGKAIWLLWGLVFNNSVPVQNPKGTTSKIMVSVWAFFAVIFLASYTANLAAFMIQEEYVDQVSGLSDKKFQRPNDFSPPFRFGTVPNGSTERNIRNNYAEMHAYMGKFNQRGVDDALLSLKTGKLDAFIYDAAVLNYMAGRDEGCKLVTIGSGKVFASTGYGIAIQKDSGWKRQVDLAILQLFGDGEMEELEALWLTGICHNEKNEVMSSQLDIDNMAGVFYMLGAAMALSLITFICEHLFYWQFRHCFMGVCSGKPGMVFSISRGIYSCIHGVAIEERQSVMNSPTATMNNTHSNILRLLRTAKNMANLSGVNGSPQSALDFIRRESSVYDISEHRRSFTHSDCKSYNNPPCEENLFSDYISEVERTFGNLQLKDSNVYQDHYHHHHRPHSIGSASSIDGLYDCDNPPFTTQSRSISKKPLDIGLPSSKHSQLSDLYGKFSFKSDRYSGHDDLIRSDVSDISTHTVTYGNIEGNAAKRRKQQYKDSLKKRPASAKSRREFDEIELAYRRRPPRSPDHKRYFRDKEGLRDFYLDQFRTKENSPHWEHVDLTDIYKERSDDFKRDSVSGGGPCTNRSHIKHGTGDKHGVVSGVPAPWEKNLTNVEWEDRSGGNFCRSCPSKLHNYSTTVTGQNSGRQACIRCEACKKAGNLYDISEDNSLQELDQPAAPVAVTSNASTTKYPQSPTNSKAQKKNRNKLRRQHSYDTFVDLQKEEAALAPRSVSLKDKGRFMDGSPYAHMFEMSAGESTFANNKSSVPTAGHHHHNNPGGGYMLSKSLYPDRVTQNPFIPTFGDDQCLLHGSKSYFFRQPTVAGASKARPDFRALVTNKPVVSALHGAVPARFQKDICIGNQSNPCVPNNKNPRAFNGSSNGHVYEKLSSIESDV

[15] = target: T8, Rho Associated Coiled-Coil Containing Protein Kinase 1 (serine-threonine kinase) (ROCK1) (Homo sapiens, UniProt Q13464); experiment: SAFETYscan KINOMEscan binding assay; settings: Inhibitor
T8 construct: host or cells: E. coli BL21-derived host (T7 phage) or HEK-293

[16] = target: T9, Acetylcholinesterase (AChE) (Homo sapiens, UniProt P22303); experiment: SAFETYscan Enzymatic assay; assay type: biochemical
T9 construct: purchased R&D Systems

Cyclooxygenase 2 (COX 2) = target: T10, Cyclooxygenase 2 (COX 2) (Homo sapiens, UniProt P35354); experiment: biochemical; settings: Inhibitor, Enzymatic
T10 construct: purchased BPS Bioscience
T10 sequence (P35354 18-604): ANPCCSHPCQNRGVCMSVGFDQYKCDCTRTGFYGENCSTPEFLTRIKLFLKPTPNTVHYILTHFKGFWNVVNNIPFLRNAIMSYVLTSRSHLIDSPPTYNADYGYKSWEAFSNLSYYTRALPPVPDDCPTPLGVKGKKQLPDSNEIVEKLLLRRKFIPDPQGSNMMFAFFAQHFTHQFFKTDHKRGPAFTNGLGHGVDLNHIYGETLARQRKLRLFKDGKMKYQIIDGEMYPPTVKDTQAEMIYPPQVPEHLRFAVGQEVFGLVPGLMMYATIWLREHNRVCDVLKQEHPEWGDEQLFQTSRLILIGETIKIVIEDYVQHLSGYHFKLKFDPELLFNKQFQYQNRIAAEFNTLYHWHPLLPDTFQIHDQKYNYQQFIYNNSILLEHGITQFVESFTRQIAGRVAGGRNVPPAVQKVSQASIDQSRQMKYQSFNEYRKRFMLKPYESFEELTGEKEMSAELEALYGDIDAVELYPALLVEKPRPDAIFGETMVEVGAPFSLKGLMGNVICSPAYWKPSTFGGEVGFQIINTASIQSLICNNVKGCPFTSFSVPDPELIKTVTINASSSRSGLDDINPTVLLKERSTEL

[17] = target: T11, cAMP-specific 3′,5′-cyclic phospho-diesterase 4D2 (PDE4D2) (Homo sapiens, UniProt Q08499); experiment: SAFETYscan Enzymatic assay; assay type: biochemical; settings: Inhibitor
T11 construct: purchased Signal Chem

[18] = target: T12, Norepinephrine transporter (NET) (Homo sapiens, UniProt P23975); experiment: SAFETYscan Transporter assay; assay type: cell-based
T12 construct: host or cells: unnamed DiscoverX cell line

[19] = Acute (single-dose) oral toxicity, pathology of major organs; assay type: in vivo; settings: 2000 mg/kg orally
Procedure: Prioritizing compounds with a lower chance of causing toxicity, early in the drug discovery process, would help in the drug development process.[30] With this consideration we conducted acute (single-dose) toxicity study[31] to determine the short-term adverse pathological effects on major mice organs of HU-MCA-13 when administered in mice in a single dose, for a period of 24 h. One group of 5 mice received HU-MCA-13 orally at a dose of 2000 mg/kg, dissolved in a nano-emulsifying drug delivery system[32] in a bolus of 0.4 mL/mouse. After 24 h exposure, the animals were sacrificed, and organs were harvest for pathology analyses. […] This finding was not related to the tested compound and was considered as an accidental finding. This information on the lack of acute toxicity of HU-MCA-13 may predict the safety of this compound in future therapeutic evaluation.
C57Bl/6 mice, 8 weeks old, obtained from Envigo animal breeding center were used in the study. All experiments were approved by the Institutional Animal Care and Use Committee and performed according to OECD guidelines for testing of chemicals.[53] Organs were harvested from mice that were administered with MCA-13 for the detection of possible toxicological lesions in the framework of a safety assessment. […]

[20] = 10 μM, read-out: MCA-13 Max. Responce
[21] = read-out: RC50 (the source's name)

Adenosine Receptor A2A (ADORA2A), sequence (P29274 whole entry): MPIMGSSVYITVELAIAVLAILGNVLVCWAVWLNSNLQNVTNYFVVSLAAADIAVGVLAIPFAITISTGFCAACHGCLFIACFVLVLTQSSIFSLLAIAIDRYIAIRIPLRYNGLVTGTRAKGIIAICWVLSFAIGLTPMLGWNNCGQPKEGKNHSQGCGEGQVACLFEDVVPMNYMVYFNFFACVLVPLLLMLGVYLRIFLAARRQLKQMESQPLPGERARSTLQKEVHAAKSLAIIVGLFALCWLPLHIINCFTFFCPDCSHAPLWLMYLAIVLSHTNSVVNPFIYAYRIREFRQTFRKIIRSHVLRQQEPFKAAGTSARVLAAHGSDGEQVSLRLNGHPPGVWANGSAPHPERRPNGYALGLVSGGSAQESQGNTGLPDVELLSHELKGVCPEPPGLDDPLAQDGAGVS

## C=CCC1CCCC(CCC(=O)O)C1=C (centres unmarked) [HU-MCA-13, 3-(3-allyl-2-methylenecyclohexyl)propanoic acid]
[1]; Agonist
  MCA-13 Max. Responce: 0%
[1]; Antagonist
  MCA-13 Max. Responce: 4.09%
[1]; Agonist, read-out: RC50 (the source's name)
  EC50: > 10 µM
[1]; Antagonist, read-out: RC50 (the source's name)
  IC50: > 10 µM
[2]
  EC50: > 10 µM
  IC50: > 10 µM
[3]; Agonist
  EC50: > 10 µM
[3]; Antagonist
  IC50: > 10 µM
[4]
  EC50: > 10 µM
  IC50: > 10 µM
[5]
  EC50: > 10 µM
  IC50: > 10 µM
[6]; Agonist
  EC50: > 10 µM
[6]; Antagonist
  IC50: > 10 µM
[7]; Agonist
  EC50: > 10 µM
[7]; Antagonist
  IC50: > 10 µM
[8]
  EC50: > 10 µM
  IC50: > 10 µM
[9]
  EC50: > 10 µM
  IC50: > 10 µM
[10]
  EC50: > 10 µM
  IC50: > 10 µM
[11]
  EC50: > 10 µM
  IC50: > 10 µM
[12]; Blocker
  IC50: > 10 µM
[12]; Opener
  EC50: > 10 µM
[13]
  IC50: > 10 µM
[14]
  EC50: > 10 µM
  IC50: > 10 µM
[15]; [20]
  inhibition at 10 µM: 21.6%
[15]; [21]
  IC50: > 10 µM
[16]
  IC50: > 10 µM
[16]; 10 μM, Inhibitor, Enzymatic, read-out: MCA-13 Max. Responce
  inhibition at 10 µM: 4.27%
Cyclooxygenase 2 (COX 2); [20]
  inhibition at 10 µM: 7.99%
Cyclooxygenase 2 (COX 2); [21]
  IC50: > 10 µM
[17]; [20]
  inhibition at 10 µM: 0%
[17]; [21]
  IC50: > 10 µM
[18]
  IC50: > 10 µM
[18]; 10 μM, Blocker, Transporter, read-out: MCA-13 Max. Responce
  inhibition at 10 µM: 3.53%
[19]; single dose in nano-emulsifying drug delivery system, 24 h
  cytotoxic lesions in all organs (histopathology): no cytotoxic lesions were found
[19]; in three animals, considered accidental, not related to the tested compound
  finding in last part of colon, rectum and adjacent anal unhaired skin: severe purulent, necrotizing inflammation
